Data on one compound can be found in ChEMBL document CHEMBL4354830, “Discovery of Benzo[cd]indol-2(1H)-ones and Pyrrolo[4,3,2-de]quinolin-2(1H)-ones as Bromodomain and Extra-Terminal Domain (BET) Inhibitors with Selectivity for the First Bromodomain with Potential High Efficiency against Acute Gouty Arthritis” (J Med Chem, 2019).

Series [1] addresses T1, Bromodomain-containing protein 4 (Homo sapiens, UniProt O60885). The series can be described thus: Displacement of tetra-acetylated histone H4 peptide (1-21) from recombinant human N-terminal His-tagged BRD4 BD1 (44 to 170 residues) expressed in Escherichia coli incubated for 30 mins followed by further incubation with tetra-acetylated histone H4 peptide (1-21) for 30 mins by Alphascreen assay.

Series [2] concerns the target T1, Bromodomain-containing protein 4. Kind of series: Displacement of tetra-acetylated histone H4 peptide (1-21) from recombinant human N-terminal His-tagged BRD4 BD2 (349 to 460 residues) expressed in Escherichia coli incubated for 30 mins followed by further incubation with tetra-acetylated histone H4 peptide (1-21) for 30 mins by Alphascreen assay. A general note: In Alpha technology, singlet oxygen from a donor bead excites a nearby acceptor bead.

The target in series [3] is Bromodomain-containing protein 3 (Homo sapiens, UniProt Q15059). The series can be described thus: Displacement of tetra-acetylated histone H4 peptide (1-21) from BRD3 BD1 (unknown origin) incubated for 30 mins followed by further incubation with tetra-acetylated histone H4 peptide (1-21) for 30 mins by Alphascreen assay.
Series [4] in a line: Metabolic stability in human assessed as intrinsic hepatic clearance by LC/MS-MS analysis. The following applies: read-out: CLH. The class given is ADME.
A short description of series [5]: Metabolic stability in monkey liver microsomes assessed as half life measured upto 60 mins by LC/MS-MS analysis. It is filed as ADME, Macaca mulatta, Microsome. Particulars: rhesus monkey.
Series [6] can be described thus: Metabolic stability in monkey assessed as intrinsic hepatic clearance by LC/MS-MS analysis. The class given is ADME, Macaca mulatta. Particulars: rhesus monkey; read-out: CLH.
Series [7] can be described thus: Metabolic stability in rat liver microsomes assessed as half life measured upto 60 mins by LC/MS-MS analysis. It is filed as ADME, Microsome.
Series [8] has as its target T1, Bromodomain-containing protein 4. The series can be described thus: Inhibition of BRD4 BD1 in human THP1 cells assessed as inhibition of MSU-induced pyroptosis by measuring caspase-/PI+ cells at 1 uM incubated for 1 hr followed by MSU treatment and measured after 12 hrs by PI/caspase 1 double staining based flow cytometric analysis (reference value: 6.8 %). The class given is cell-based. Details: scale not given: the % may be the effect or the level left. On the technique in general: Flow cytometry measures light scatter and fluorescence of single cells or particles in a stream.

Series [9] has the same target. The series can be described thus: Binding affinity to immobilized DNA-tagged human BRD4 BD2 by BROMOscan analysis.

Chain of Bromodomain-containing protein 3 (Q15059 whole entry): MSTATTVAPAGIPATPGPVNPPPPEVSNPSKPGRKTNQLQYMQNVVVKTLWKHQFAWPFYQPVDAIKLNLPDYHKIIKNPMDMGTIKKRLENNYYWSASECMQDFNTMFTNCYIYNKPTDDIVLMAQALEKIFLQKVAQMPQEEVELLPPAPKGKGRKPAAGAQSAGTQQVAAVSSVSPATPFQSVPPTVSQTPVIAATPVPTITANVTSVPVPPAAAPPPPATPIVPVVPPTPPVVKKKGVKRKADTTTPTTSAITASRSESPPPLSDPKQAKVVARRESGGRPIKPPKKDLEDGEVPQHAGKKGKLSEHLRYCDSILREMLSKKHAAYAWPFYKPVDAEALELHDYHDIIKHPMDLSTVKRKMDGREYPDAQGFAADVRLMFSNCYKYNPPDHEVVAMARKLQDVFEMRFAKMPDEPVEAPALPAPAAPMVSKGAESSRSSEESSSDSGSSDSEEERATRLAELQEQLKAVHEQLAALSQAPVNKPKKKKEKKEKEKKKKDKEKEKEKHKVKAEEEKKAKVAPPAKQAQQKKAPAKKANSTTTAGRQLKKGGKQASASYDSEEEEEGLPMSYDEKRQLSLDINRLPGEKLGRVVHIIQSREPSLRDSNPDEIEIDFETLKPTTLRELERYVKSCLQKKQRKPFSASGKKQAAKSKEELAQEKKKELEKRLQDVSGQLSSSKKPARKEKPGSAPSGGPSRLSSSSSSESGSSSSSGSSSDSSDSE

Broadly, the IC50 is the concentration at which inhibition is half-maximal. A word on the half-life: it is the time in which the quantity being followed falls by half. What is called Kd is the free concentration of one partner at which half of the binding sites on the other are occupied at equilibrium, for simple one-to-one binding. As to `COc1ccccc1S(=O)(=O)Nc1ccc2c3c(cc(-n4cnc(C)c4)nc13)C(=O)N2C`, the IC50 came out at 87.7 nM in [1], 12100 nM in series [2] and 246 nM in series [3]. Also, the CLint scaled in series [4] came to 88.4 mL/min/kg; in [6], 194 mL/min/kg. The half-life in [5] is 10.3 min; in series [7], 9.45 min. In series [8], the Activity was 4.9%. Moreover, the Kd in [9] is > 25000 nM.
